# Earlier results in patent US20090215892A1, “Octanol Formulations and Methods of Treatment Using the Same” (priority 2005, published 2009).
# What was measured:
# mice = settings: tested orally in mice
# essential tremor [1] = settings: twelve patients
# essential tremor [2] = settings: lactose capsule form
# [3] = ordinary conditions of use and storage
# [4] = tested on: hereditary essential tremor; settings: patients with hereditary essential tremor
compound,measurement,setting,value
"CCCCCCCCO [Example 1-octanol, 1-octanol]",toxicity LD5O,mice,1790 mg/kg
same,duration of reduction of peak tremor amplitude versus baseline,"essential tremor [1]; 1 mg/kg 1-octanol, no improvement in placebo group (Bushara 2002)",up to 2 hours
same,change of tremor amplitude frequency,"essential tremor [1]; single oral dose of 1 mg/kg, anhydrous lactose coated capsule (Bushara 2004)",decrease
same,solubility in water,,slightly soluble
same,Solubility in Water at 40° C. (Wt %),,0.065 Wt %
same,side-effect noted,essential tremor [2]; single oral doses up to 64 mg/kg,unusual taste
same,tolerated dose,"essential tremor [2]; single oral doses, patients with essential tremor",up to 64 mg/kg
same,stability,[3],stable
"CCCCCCC(C)O (centres unmarked) [Example 2-octanol, 2-octanol]",Solubility in Water at 40° C. (Wt %),,0.089 Wt %
"CCCCC(O)CCC (centres unmarked) [Example 4-octanol, 4-octanol]",Solubility in Water at 40° C. (Wt %),,0.095 Wt %
CCO [ethanol],patients in whom treatment was effective,[4],50%
